{"source": "paper PMC6199279", "about": "“Design of Peptoid-peptide Macrocycles to Inhibit the β-catenin TCF Interaction in Prostate Cancer” (Nature Communications, 2018)", "key": {"[1]": {"test_system": "TOP-Flash Wnt luciferase reporter", "assay": "TOP-Flash Wnt luciferase reporter assay in LNCaP-abl cells", "format": "cell-based", "from_the_text": "(§1) Using a TOP-Flash Wnt luciferase reporter, we tested the 12 oligomers identified from in silico modeling for inhibitory activity (Fig. 2b). […] We also employed a 3 × -Androgen Response Element (ARE) luciferase reporter to measure the effect on AR activity. […] As additional controls, we obtained previously developed, commercially available Wnt inhibitors and tested them in the Wnt luciferase assay (Supplementary Fig. 5).\n(§2) We next characterized the dose response curves for compound 13 in the Wnt and AR luciferase reporters. The linear version of 13 (linear 13: NH2-|N-mpp, N-dmp, N-ipp, N-Smpe, N-Smpe, D-Ala|-OH) was used as a control compound. […] To test direct binding, we pre-formed dynamic light scattering (DLS) with β-catenin in the presence of vehicle, compound 13, and α-cyclodextrin. […] HEK293 cells were transiently transfected with a plasmid expressing full length, myc-tagged TCF4. After 48 h treatment with either vehicle (DMSO) or 10 µM 13, cells were lysed and myc-TCF4 protein was immunoprecipitated.\nLNCaP-abl and LNCaP-95 cells were cultured in indicator free RPMI 1640 media (Life) supplemented with 10% charcoal stripped FBS, 1% pennicillin/streptomycin, and 1% L-Glutamine. HEK-293 Cells were cultured in DMEM media (Life) supplemented with 10%FBS and 1% pennicillin/streptomycin. A549 and U2OS cells were cultured in RPMI 1640 media (Life) and McCoy’s 5 A modified media (Life), respectively, both supplemented with 10%FBS and 1% pennicillin/streptomycin. LNCaP-abl, and LNCaP-95 cell lines were generous gifts from Z. Culig (Innsbruck Medical University, Austria) and J. Isaacs (Johns Hopkins University, Baltimore, MD), respectively. Cell lines were authenticated by STR profiling (Genetica Cell Line Testing; Burlington, NC). A549 and U2OS were purchased from ATCC (product numbers CCL-185 and HTB-96). Cell lines were routinely screened for mycoplasma. Luciferase assays were conducted using stably transfected TOP-flash and 3xARE LNCaP-abl cell lines. For the Wnt pathway, TOP-Flash LNCaP-abl cells were treated with 1 nM siAPC (a 1:1:1 mix of Ambion Silencer Silect siAPC RNA, ID#s s1433, s1434, s1435) for 24 h and seeded into 384-well plates at 5000 cells/well, followed by 24 h of treatment with compound. For the AR-pathway, 3xARE LNCaP-abl cells were seeded into 384-well plates at 5000 cells per well, treated for 48 h with compound, with the addition of R1881 for the final 8 h. Both were measured using the ONE-Glo detection kit (Promega) and data is standardized to CellTiter-Fluor (Promega) viability readings to account for potential variations in well to well cell number. Control Wnt inhibitors were purchased from Sigma with the exception of PRI-724 which was purchased from Selleckchem. Co-immunoprecipitation was carried out using HEK293 cells transfected with either myc-TCF (addgene #32738) or myc-TCF dominant negative (addgene #32739) followed by 48 h of treatment with compound. Cells were lysed using Triton lysis buffer and 1 mg total protein was incubated overnight at 4 C with 40 µl anti-cMyc magnetic beads (Thermo). Total protein concentration in cell lysates were determined using Pierce Rapid Gold BCA Protein Assay Kit (Thermo). The beads were washed 3× with lysis buffer then boiled in 2X sample loading dye. SDS-PAGE and western blotting were performed using anti-Myc (CST 2276) and anti-β-catenin (CST 8480). Both antibodies were diluted in blocking buffer 1:1000 and incubated overnight at 4 C with the membrane. […]"}, "[2]": {"test_system": "AR luciferase reporter (3xARE)", "assay": "3x-Androgen Response Element (ARE) luciferase reporter assay in LNCaP-abl cells", "format": "cell-based", "from_the_text": "as §1, §2\nLNCaP-abl and LNCaP-95 cells were cultured in indicator free RPMI 1640 media (Life) supplemented with 10% charcoal stripped FBS, 1% pennicillin/streptomycin, and 1% L-Glutamine. HEK-293 Cells were cultured in DMEM media (Life) supplemented with 10%FBS and 1% pennicillin/streptomycin. A549 and U2OS cells were cultured in RPMI 1640 media (Life) and McCoy’s 5 A modified media (Life), respectively, both supplemented with 10%FBS and 1% pennicillin/streptomycin. LNCaP-abl, and LNCaP-95 cell lines were generous gifts from Z. Culig (Innsbruck Medical University, Austria) and J. Isaacs (Johns Hopkins University, Baltimore, MD), respectively. Cell lines were authenticated by STR profiling (Genetica Cell Line Testing; Burlington, NC). […] Both were measured using the ONE-Glo detection kit (Promega) and data is standardized to CellTiter-Fluor (Promega) viability readings to account for potential variations in well to well cell number. […] Total protein concentration in cell lysates were determined using Pierce Rapid Gold BCA Protein Assay Kit (Thermo). […]"}, "[3]": {"test_system": "Wnt signaling in zebrafish embryos", "details": "zebrafish, in vivo", "quoted_text": "To evaluate the efficacy of 13 in vivo, we utilized a Danio rerio (zebrafish) model. […] To test this, BIO was added to zebrafish embryos at 6 hpf with and without 13 as described in Fig. 6a.\nThe zebrafish phenotypic assay was conducted using wild-type zebrafish embryos seeded into a 96-well round bottom plate at 4 hpf in 50 µl of Fish Water (60 mg/l sea salt, Instant Ocean, Blacksburg, VA, USA) supplemented with 1 mg per L Methylene Blue (Sigma-Aldrich). The embryos were not dechorionated. At 50% epiboly, roughly 5.5 hpf, 50 µl of 30 µM 13 or Linear 13 was added. About 30 min later at shield stage, 50 µl of 6 nM (3×) BIO was added. The embryos were then visualized for the presence of eyes and imaged at 30 hpf. Zebrafish embryos were randomly assigned to non-blinded treatment groups, none were excluded. Sample size was determined with a power calculation to achieve statistical significance (alpha = 0.05, beta = 0.2) if only 60% of the fish had developed eyes."}, "LNCaP-abl spheroids": {"test_system": "LNCaP-abl spheroids", "protocol": "To evaluate the impact of the compounds under 3D cell culture conditions thought to be more representative of tumors, we grew LNCaP-abl cells in low attachment plates. The effects on spheroid formation and growth were evaluated following treatment with vehicle, 13, or linear 13 administered at the time of seeding at low cell density in a 384-well plate. In a separate experiment, to test the impact on pre-formed spheroids, cells were treated 5 days after initial seeding. Spheroids from both experiments were grown for 22 days, with compound refreshed on days 5, 9, 13, 16, and 20. […] PrestoBlue was used to measure cell viability on day 22 (Fig. 5b). […] Figure 5c–f depicts spheroid area over time based on size measurements from the images taken throughout the experiment.\nScale bar represents 400 μm. b End point viability measurements taken on day 22 using PrestoBlue. c–f Time course of spheroid areas calculated from images taken throughout the experiment.\nLNCaP-abl cells were seeded into 384-well ultra-low attachment plates (Corning), 1000 cells/well. Varying concentrations of compound were added either on the same day as seeding or on day 5. Media was changed every 3–4 days using a Biotek automated media exchanger. Images were taken using an ArraySca VTI (Cellomics) on days 5, 9, 13, 16, 20, and 22. Images were analyzed for spheroid area with the HCS Studio Cellomics Scan Version 6.6.0 (Thermo) software. A final viability measurement was taken on day 22 using PrestoBlue reagent (Thermo)."}, "[4]": {"details": "10 µM compound, relative to vehicle"}}, "note": "Like-named read-outs stand apart in the source and are kept apart here. Numbered stars: 1 amine (or outer) side, 2 acyl side, 3 side chain; on linkers, the order of the positions; unused ones are H or OH. Square brackets hold non-standard residues; d marks the D form. Peptide text beside a SMILES is read from it. N(2-(2-PhOPh)Et)Gly = O=C(O)CNCCc1ccccc1Oc1ccccc1; Gly(N-3,5-(OMe)2-Ph) = COc1cc(NCC(=O)O)cc(OC)c1; X1 = COc1ccc([C@H](C)N(CC(=O)[*:2])[*:1])cc1; N((CH2)3OiPr)Gly = CC(C)OCCCNCC(=O)O", "data": [{"smiles": "COc1ccc([C@H](C)N2CC(=O)N[C@H](C)C(=O)N(CCc3ccccc3Oc3ccccc3)CC(=O)N(c3cc(OC)cc(OC)c3)CC(=O)N(CCCOC(C)C)CC(=O)N([C@@H](C)c3ccc(OC)cc3)CC2=O)cc1", "note": "[Compound 13] (cyclo([dA][N(2-(2-PhOPh)Et)Gly][Gly(N-3,5-(OMe)2-Ph)][N((CH2)3OiPr)Gly][X1][X1]))", "values": [{"measurement": "Wnt inhibitory activity (TOP-Flash luciferase)", "setting": "[1]; [4]", "value": "more effective"}, {"measurement": "IC50", "setting": "[1]; TOP-Flash LNCaP-abl cells, siAPC knockdown, 24 h compound, ± SD of three replicates, read-out: IC50 for Wnt luciferase inhibition", "value": 0.105, "unit": "µM"}, {"measurement": "Inhibition of AR signaling (3xARE luciferase)", "setting": "[2]; [4]", "value": "more effective"}, {"measurement": "IC50", "setting": "[2]; 3xARE LNCaP-abl cells, 48 h compound, androgen-activated, read-out: IC50 for inhibition of the AR luciferase reporter", "value": 1.02, "unit": "µM"}, {"measurement": "Harm to embryo development", "setting": "[3]", "value": "does not otherwise harm embryo development"}, {"measurement": "Spheroid growth, compound added day 0", "setting": "LNCaP-abl spheroids; 0.5 µM", "value": "slowed growth"}, {"measurement": "Spheroid formation, compound added day 0", "setting": "LNCaP-abl spheroids; 20 µM, 10 µM, 5 µM, 2 µM and 1 µM", "value": "prevented spheroid formation"}, {"measurement": "Growth of pre-formed spheroids, treatment started day 5", "setting": "LNCaP-abl spheroids; at or above 2 µM", "value": "stalled the growth of pre-formed spheroids"}, {"measurement": "Spheroid growth, low concentrations", "setting": "LNCaP-abl spheroids; between 0.001 µM and 0.1 µM", "value": "little effect"}, {"measurement": "IC50", "setting": "LNCaP-abl spheroids; read-out: IC50 spheroid proliferation, treatment started Day 0, PrestoBlue viability on day 22, compound added at seeding", "value": 0.694, "unit": "µM"}, {"measurement": "IC50", "setting": "LNCaP-abl spheroids; read-out: IC50 spheroid proliferation, treatment started Day 5, PrestoBlue viability on day 22, pre-formed spheroids", "value": 1.34, "unit": "µM"}]}]}
